# Results: patent publication US20260217701A1, “SELECTIVE BET INHIBITORS AND USES THEREOF” (Tay Therapeutics Limited, priority 2022, published 2026)
# Where “and” joins values, the source holds several entries; their conditions need not be identical. Equal values may be shown once.
# Tested on: imiquimod-induced psoriasis
# Assay: Imiquimod-induced psoriasis model
# Format: in vivo, mice
# Set-up: Spleen Weight / Spleen Weight Ratio: unit not given here
# Conditions: for Mean scores of the presence of erythema on the skin of animals at the area of induction of psoriasis / Mean scores of the presence of induration on the skin of animals at the area of induction of psoriasis / Mean scores of the presence of peeling on the skin of animals at the area of induction of psoriasis: mean ± SEM
# How it was run: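 Mice given topical imiquimod (5% cream) daily on depilated backs Days 1–14; Compound A in 5% DMSO/40% PEG-400/55% saline from Day 8, clobetasol topical as reference. Daily PASI (erythema, induration, peeling, each 0–4, summed) Days 8–15; spleen weight, open-field behaviour, serum IL-1B, IL-6, IL-17, TNF-α, IL-22, IL-23 at Day 15.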
# [1] = IMI + 1 mg/kg, D8 (before start of treatment)
# [2] = IMI + 3 mg/kg, D8 (before start of treatment)
compound,measurement,setting,value
"COCCn1cc(-c2ccccc2)c(-c2cn(C)c(=O)c3[nH]c(-c4cnn(C(F)(F)F)c4)cc23)cc1=O [Compound B, 4-(1-(2-methoxyethyl)-2-oxo-5-phenyl-1,2-dihydropyridin-4-yl)-6-methyl-2-(1-(trifluoromethyl)-1H-pyrazol-4-yl)-1,6-dihydro-7H-pyrrolo[2,3-c]pyridin-7-one]",Spleen Weight Ratio,"IMI-psoriasis model, mice, 10 mg/kg, individual animals",1026.10 and 1000.89 and 999.24 and 691.05 and 654.43 and 926.75 and 782.83 and 888.53
same,Spleen Weight Ratio,"day 15, 1, 3, 10 mg/kg",dose-dependent decrease
same,efficacy on the treatment of psoriasis,highest tested dose of 10 mg/kg,very good efficacy
same,Mean scores of the presence of erythema on the skin of animals at the area of induction of psoriasis,[1],2.1 ± 0.1
same,Mean scores of the presence of induration on the skin of animals at the area of induction of psoriasis,[1],2.5 ± 0.2
same,Mean scores of the presence of peeling on the skin of animals at the area of induction of psoriasis,[1],2.1 ± 0.1
same,Mean scores of the presence of erythema on the skin of animals at the area of induction of psoriasis,"IMI + 1 mg/kg, D9",1.8 ± 0.2
same,Mean scores of the presence of induration on the skin of animals at the area of induction of psoriasis,"IMI + 1 mg/kg, D9",2.5 ± 0.2
same,Mean scores of the presence of peeling on the skin of animals at the area of induction of psoriasis,"IMI + 1 mg/kg, D9",2.5 ± 0.3
same,Mean scores of the presence of erythema on the skin of animals at the area of induction of psoriasis,"IMI + 1 mg/kg, D10",1.8 ± 0.2
same,Mean scores of the presence of induration on the skin of animals at the area of induction of psoriasis,"IMI + 1 mg/kg, D10",2.3 ± 0.2
same,Mean scores of the presence of peeling on the skin of animals at the area of induction of psoriasis,"IMI + 1 mg/kg, D10",2.0 ± 0.2
same,Mean scores of the presence of erythema on the skin of animals at the area of induction of psoriasis,"IMI + 1 mg/kg, D11",2.3 ± 0.2
same,Mean scores of the presence of induration on the skin of animals at the area of induction of psoriasis,"IMI + 1 mg/kg, D11",2.3 ± 0.3
same,Mean scores of the presence of peeling on the skin of animals at the area of induction of psoriasis,"IMI + 1 mg/kg, D11",2.0 ± 0.1
same,Mean scores of the presence of erythema on the skin of animals at the area of induction of psoriasis,"IMI + 1 mg/kg, D12",1.8 ± 0.2
same,Mean scores of the presence of induration on the skin of animals at the area of induction of psoriasis,"IMI + 1 mg/kg, D12",2.0 ± 0.0
same,Mean scores of the presence of peeling on the skin of animals at the area of induction of psoriasis,"IMI + 1 mg/kg, D12",1.9 ± 0.1
same,Mean scores of the presence of erythema on the skin of animals at the area of induction of psoriasis,"IMI + 1 mg/kg, D13",1.5 ± 0.3
same,Mean scores of the presence of induration on the skin of animals at the area of induction of psoriasis,"IMI + 1 mg/kg, D13",2.0 ± 0.0
same,Mean scores of the presence of peeling on the skin of animals at the area of induction of psoriasis,"IMI + 1 mg/kg, D13",2.0 ± 0.3
same,Mean scores of the presence of erythema on the skin of animals at the area of induction of psoriasis,"IMI + 1 mg/kg, D14",1.8 ± 0.3
same,Mean scores of the presence of induration on the skin of animals at the area of induction of psoriasis,"IMI + 1 mg/kg, D14",2.0 ± 0.0
same,Mean scores of the presence of peeling on the skin of animals at the area of induction of psoriasis,"IMI + 1 mg/kg, D14",1.9 ± 0.2
same,Mean scores of the presence of erythema on the skin of animals at the area of induction of psoriasis,"IMI + 1 mg/kg, D15",1.5 ± 0.2
same,Mean scores of the presence of induration on the skin of animals at the area of induction of psoriasis,"IMI + 1 mg/kg, D15",1.9 ± 0.1
same,Mean scores of the presence of peeling on the skin of animals at the area of induction of psoriasis,"IMI + 1 mg/kg, D15",1.8 ± 0.3
same,Mean scores of the presence of erythema on the skin of animals at the area of induction of psoriasis,[2],2.4 ± 0.2
same,Mean scores of the presence of induration on the skin of animals at the area of induction of psoriasis,[2],2.6 ± 0.2
same,Mean scores of the presence of peeling on the skin of animals at the area of induction of psoriasis,[2],2.6 ± 0.3
same,Mean scores of the presence of erythema on the skin of animals at the area of induction of psoriasis,"IMI + 3 mg/kg, D9",1.9 ± 0.3
same,Mean scores of the presence of induration on the skin of animals at the area of induction of psoriasis,"IMI + 3 mg/kg, D9",2.0 ± 0.0
same,Mean scores of the presence of peeling on the skin of animals at the area of induction of psoriasis,"IMI + 3 mg/kg, D9",2.1 ± 0.0
same,Mean scores of the presence of erythema on the skin of animals at the area of induction of psoriasis,"IMI + 3 mg/kg, D10",1.6 ± 0.2
same,Mean scores of the presence of induration on the skin of animals at the area of induction of psoriasis,"IMI + 3 mg/kg, D10",2.1 ± 0.1
same,Mean scores of the presence of peeling on the skin of animals at the area of induction of psoriasis,"IMI + 3 mg/kg, D10",2.0 ± 0.2
same,Mean scores of the presence of erythema on the skin of animals at the area of induction of psoriasis,"IMI + 3 mg/kg, D11",1.9 ± 0.2
same,Mean scores of the presence of induration on the skin of animals at the area of induction of psoriasis,"IMI + 3 mg/kg, D11",1.7 ± 0.2
same,Mean scores of the presence of peeling on the skin of animals at the area of induction of psoriasis,"IMI + 3 mg/kg, D11",1.9 ± 0.1
same,Mean scores of the presence of erythema on the skin of animals at the area of induction of psoriasis,"IMI + 3 mg/kg, D12",1.9 ± 0.1
same,Mean scores of the presence of induration on the skin of animals at the area of induction of psoriasis,"IMI + 3 mg/kg, D12",1.9 ± 0.1
same,Mean scores of the presence of peeling on the skin of animals at the area of induction of psoriasis,"IMI + 3 mg/kg, D12",1.6 ± 0.2
same,Mean scores of the presence of erythema on the skin of animals at the area of induction of psoriasis,"IMI + 3 mg/kg, D13",1.5 ± 0.2
same,Mean scores of the presence of induration on the skin of animals at the area of induction of psoriasis,"IMI + 3 mg/kg, D13",1.9 ± 0.1
same,Mean scores of the presence of peeling on the skin of animals at the area of induction of psoriasis,"IMI + 3 mg/kg, D13",1.6 ± 0.2
same,Mean scores of the presence of erythema on the skin of animals at the area of induction of psoriasis,"IMI + 3 mg/kg, D14",1.3 ± 0.2
same,Mean scores of the presence of induration on the skin of animals at the area of induction of psoriasis,"IMI + 3 mg/kg, D14",1.9 ± 0.1
same,Mean scores of the presence of peeling on the skin of animals at the area of induction of psoriasis,"IMI + 3 mg/kg, D14",1.5 ± 0.1
same,Mean scores of the presence of erythema on the skin of animals at the area of induction of psoriasis,"IMI + 3 mg/kg, D15",0.9 ± 0.2
same,Mean scores of the presence of induration on the skin of animals at the area of induction of psoriasis,"IMI + 3 mg/kg, D15",1.4 ± 0.2
